Our source for the CC50 and EC50 values is US10954252B1, “Inhibitors of human immunodeficiency virus replication” (ViiV HEALTHCARE UK (NO.5) LIMITED, priority 2017, dated 2021).

Data set [1] is described as follows: Compound cytotoxicity, XTT-based colorimetric assay. The format is cell-based. The following applies: human, uninfected MT2 cells, Table 1, day 4, XTT. The method in brief:
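CC50 from uninfected MT2 cells run under the antiviral-assay protocol without virus. Viability read on day 4 by XTT colorimetric assay.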

In data set [2] the test system is recombinant NL4-3 virus (nef section replaced with Renilla luciferase gene) in MT-2 cells. Description: HIV cell culture assay (antiviral activity, luciferase readout). The format is cell-based. Conditions: Renilla, NL43, Table 1; MT-2 cells infected for 4-5 days with recombinant NL4-3 luciferase virus. An outline of the steps:
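NL4-3 reporter virus carrying Renilla luciferase in place of part of nef, produced in 293T cells, was used to infect MT-2 cells for 4-5 days with serial compound dilutions. Luciferase activity was read with a live-cell substrate; EC50 derived from the median effect equation.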

`CC(C)S(=O)(=O)NC(=O)c1cc(-c2cc3[nH]ncc3nc2[C@H](Cc2cc(F)cc(F)c2)NC(=O)Cn2nc(C(F)F)c3c2C(F)(F)[C@@H]2C[C@H]32)ccc1Cl` [Example 10.19, 2-chloro-5-(5-((S)-1-(2-((3bS,4aR)-3-(difluoromethyl)-5,5-difluoro-3b,4,4a,5-tetrahydro-1H-cyclopropa[3,4]cyclopenta[1,2-c]pyrazol-1-yl)acetamido)-2-(3,5-difluorophenyl)ethyl)-1H-pyrazolo[4,3-b]pyridin-6-yl)-N-(isopropylsulfonyl)benzamide]: in data set [1], the CC50 at 4 days was > 10 µM. In data set [2], the EC50 amounted to 220 nM.

Turning to `CC1(S(=O)(=O)NC(=O)c2cc(-c3cc4[nH]ncc4nc3[C@H](Cc3cc(F)cc(F)c3)NC(=O)Cn3nc(C(F)F)c4c3C(F)(F)[C@@H]3C[C@H]43)ccc2Cl)CC1` [Example 10.20, 2-Chloro-5-(5-((S)-1-(2-((3bS,4aR)-3-(difluoromethyl)-5,5-difluoro-3b,4,4a,5-tetrahydro-1H-cyclopropa[3,4]cyclopenta[1,2-c]pyrazol-1-yl)acetamido)-2-(3,5-difluorophenyl)ethyl)-1H-pyrazolo[4,3-b]pyridin-6-yl)-N-((1-methylcyclopropyl)sulfonyl)benzamide], in data set [1], the CC50 at 4 days is > 10 µM. Moreover, the EC50 in data set [2] stood at 290 nM.

As to `O=C(Cn1nc(C(F)F)c2c1C(F)(F)[C@@H]1C[C@H]21)N[C@@H](Cc1cc(F)cc(F)c1)c1nc2cn[nH]c2cc1-c1ccc(Cl)c(C(=O)NS(=O)(=O)C2CCCC2)c1` [Example 10.21, 2-Chloro-N-(cyclopentylsulfonyl)-5-(5-((S)-1-(2-((3bS,4aR)-3-(difluoromethyl)-5,5-difluoro-3b,4,4a,5-tetrahydro-1H-cyclopropa[3,4]cyclopenta[1,2-c]pyrazol-1-yl)acetamido)-2-(3,5-difluorophenyl)ethyl)-1H-pyrazolo[4,3-b]pyridin-6-yl)benzamide], in data set [1], the CC50 at 4 days is > 10 µM. Also, the 50% effective concentration (EC50) in data set [2] came out at 240 nM.

In the case of `Cn1nc(NS(C)(=O)=O)c2c(Cl)ccc(-c3cc4[nH]ncc4nc3[C@H](Cc3cc(F)cc(F)c3)NC(=O)Cc3c[nH]c4ccc(O)cc34)c21` [Example 10.22], the CC50 at 4 days in data set [1] was > 10 µM. The EC50 in data set [2] is 22 nM.

`O=C(Cc1c[nH]c2ccc(O)cc12)N[C@@H](Cc1cc(F)cc(F)c1)c1nc2ncccc2c(=O)n1-c1ccc2scnc2c1` [Example 10.23]: the 50% cytotoxic concentration (CC50) at 4 days in data set [1] was > 10 µM. For the same compound, the EC50 in data set [2] was determined as 2.7 nM.

For the compound `O=C(Cn1nc(C(F)F)c2c1C(F)(F)[C@@H]1C[C@H]21)N[C@@H](Cc1cc(F)cc(F)c1)c1nc2ncccc2c(=O)n1-c1ccc2scnc2c1` [Example 10.24], in data set [1], the CC50 at 4 days was > 10 µM. For the same compound, the EC50 in data set [2] stood at 1.7 nM.

As to `O=C(Cn1nc(C(F)F)c2c1C(F)(F)[C@@H]1C[C@H]21)N[C@@H](Cc1cc(F)cc(F)c1)c1nc2cn[nH]c2cc1-c1ccc(F)c(C(=O)O)c1` [Example 10.25, 5-(5-((S)-1-(2-((3bS,4aR)-3-(difluoromethyl)-5,5-difluoro-3b,4,4a,5-tetrahydro-1H-cyclopropa[3,4]cyclopenta[1,2-c]pyrazol-1-yl)acetamido)-2-(3,5-difluorophenyl)ethyl)-1H-pyrazolo[4,3-b]pyridin-6-yl)-2-fluorobenzoic acid], the CC50 at 4 days in data set [1] was > 10 µM. Moreover, the 50% effective concentration (EC50) in data set [2] was 580 nM.

Regarding `CS(=O)(=O)NC(=O)c1cc(-c2cc3[nH]ncc3nc2[C@H](Cc2cc(F)cc(F)c2)NC(=O)Cn2nc(C(F)F)c3c2C(F)(F)[C@@H]2C[C@H]32)ccc1F` [Example 10.26, 5-(5-((S)-1-(2-((3bS,4aR)-3-(difluoromethyl)-5,5-difluoro-3b,4,4a,5-tetrahydro-1H-cyclopropa[3,4]cyclopenta[1,2-c]pyrazol-1-yl)acetamido)-2-(3,5-difluorophenyl)ethyl)-1H-pyrazolo[4,3-b]pyridin-6-yl)-2-fluoro-N-(methylsulfonyl)benzamide], in data set [1], the CC50 at 4 days was > 10 µM. For the same compound, the EC50 in data set [2] is 930 nM.

As for `CC(C)S(=O)(=O)NC(=O)c1cc(-c2cc3[nH]ncc3nc2[C@H](Cc2cc(F)cc(F)c2)NC(=O)Cn2nc(C(F)F)c3c2C(F)(F)[C@@H]2C[C@H]32)ccc1F` [Example 10.27, 5-(5-((S)-1-(2-((3bS,4aR)-3-(difluoromethyl)-5,5-difluoro-3b,4,4a,5-tetrahydro-1H-cyclopropa[3,4]cyclopenta[1,2-c]pyrazol-1-yl)acetamido)-2-(3,5-difluorophenyl)ethyl)-1H-pyrazolo[4,3-b]pyridin-6-yl)-2-fluoro-N-(isopropylsulfonyl)benzamide], the CC50 at 4 days in data set [1] was > 10 µM. The EC50 in data set [2] worked out at 820 nM.

As to `O=C(Cn1nc(C(F)F)c2c1C(F)(F)[C@@H]1C[C@H]21)N[C@@H](Cc1cc(F)cc(F)c1)c1nc2cn[nH]c2cc1-c1ccc(F)c(C(=O)NS(=O)(=O)C2CC2)c1` [Example 10.28, N-(cyclopropylsulfonyl)-5-(5-((S)-1-(2-((3bS,4aR)-3-(difluoromethyl)-5,5-difluoro-3b,4,4a,5-tetrahydro-1H-cyclopropa[3,4]cyclopenta[1,2-c]pyrazol-1-yl)acetamido)-2-(3,5-difluorophenyl)ethyl)-1H-pyrazolo[4,3-b]pyridin-6-yl)-2-fluorobenzamide], in data set [1], the CC50 at 4 days was > 10 µM. Besides, in data set [2], the EC50 is 510 nM.

On to `COc1ccc(-n2c([C@H](Cc3cc(F)cc(F)c3)NC(=O)Cc3c[nH]c4ccc(O)cc34)nc3ccccc3c2=O)cc1` [Example 10.30], for which, in data set [1], the CC50 at 4 days was > 10 µM. Also, the EC50 in data set [2] came out at 8 nM.

On to `COc1ccc(-n2c([C@H](Cc3cc(F)cc(F)c3)NC(=O)Cn3nc(C(F)F)c4c3C(F)(F)[C@@H]3C[C@H]43)nc3ccccc3c2=O)cc1` [Example 10.31], for which, in data set [1], the CC50 at 4 days is > 10 µM. Also, the EC50 in data set [2] was 18 nM.

For the compound `CC(C)c1ccc(-c2c([C@H](Cc3cc(F)cc(F)c3)NC(=O)Cn3nc(C(F)F)c4c3C(F)(F)[C@@H]3C[C@H]43)nc3ncnn3c2N)cn1` [Example 10.32, N—((S)-1-(7-amino-6-(6-isopropylpyridin-3-yl)-[1,2,4]triazolo[1,5-a]pyrimidin-5-yl)-2-(3,5-difluorophenyl)ethyl)-2-((3bS,4aR)-3-(difluoromethyl)-5,5-difluoro-3b,4,4a,5-tetrahydro-1H-cyclopropa[3,4]cyclopenta[1,2-c]pyrazol-1-yl)acetamide], in data set [1], the CC50 at 4 days is > 10 µM. The concentration giving a half-maximal response (EC50) in data set [2] stood at 54 nM.

`CC(C)c1ccc(-n2c([C@H](Cc3cc(F)cc(F)c3)NC(=O)Cc3c[nH]c4ccc(O)cc34)nc3ccccc3c2=O)cn1` [Example 10.33]: in data set [1], the CC50 at 4 days is > 10 µM. In addition, in data set [2], the EC50 came out at 49 nM.

Regarding `CC(C)c1ccc(-n2c([C@H](Cc3cc(F)cc(F)c3)NC(=O)Cn3nc(C(F)F)c4c3C(F)(F)[C@@H]3C[C@H]43)nc3ccccc3c2=O)cn1` [Example 10.34], in data set [1], the CC50 at 4 days is 7.9 µM. The EC50 in data set [2] worked out at 15 nM.

Regarding `CC(C)c1ccc(-n2c([C@H](Cc3cc(F)cc(F)c3)NC(=O)Cn3nc(C(F)F)c4c3C(F)(F)[C@@H]3C[C@H]43)nc3ncccc3c2=O)cc1` [Example 10.35], in data set [1], half-maximal cytotoxicity (CC50 at 4 days) was put at 1.9 µM. The EC50 in data set [2] is 1.7 nM.

Turning to `O=C(Cn1nc(C(F)F)c2c1C(F)(F)[C@@H]1C[C@H]21)N[C@@H](Cc1cc(F)cc(F)c1)c1nc2cn[nH]c2cc1-c1ccc2ccnn2c1` [Example 10.36, 2-((3bS,4aR)-3-(difluoromethyl)-5,5-difluoro-3b,4,4a,5-tetrahydro-1H-cyclopropa[3,4]cyclopenta[1,2-c]pyrazol-1-yl)-N—((S)-2-(3,5-difluorophenyl)-1-(6-(pyrazolo[1,5-a]pyridin-6-yl)-1H-pyrazolo[4,3-b]pyridin-5-yl)ethyl)acetamide], in data set [1], the CC50 at 4 days is > 10 µM. Also, in data set [2], the EC50 worked out at 80 nM.

`CC(C)c1ccc(-n2c([C@H](Cc3cc(F)cc(F)c3)NC(=O)Cn3nc(C(F)F)c4c3C(F)(F)[C@@H]3C[C@H]43)nc3ncccc3c2=O)cn1` [Example 10.37] yielded a CC50 at 4 days in data set [1] of 6.9 µM. For the same compound, in data set [2], the 50% effective concentration (EC50) worked out at 4.8 nM.

With `O=C(Cn1nc(C(F)F)c2c1C(F)(F)[C@@H]1C[C@H]21)N[C@@H](Cc1cc(F)cc(F)c1)c1nc2ncccc2c(=O)n1-c1ccc(S(=O)(=O)N2CCOCC2)cc1` [Example 10.38], the CC50 at 4 days in data set [1] is > 10 µM. Moreover, in data set [2], the concentration giving a half-maximal response (EC50) was 0.204 nM.

Consider `Cn1nc(NS(C)(=O)=O)c2c(Cl)ccc(-n3c([C@H](Cc4cc(F)cc(F)c4)NC(=O)Cn4ccc(C5CC5)n4)nc4ncccc4c3=O)c21` [Example 15, (S)—N-(1-(3-(4-chloro-1-methyl-3-(methylsulfonamido)-1H-indazol-7-yl)-4-oxo-3,4-dihydropyrido[2,3-d]pyrimidin-2-yl)-2-(3,5-difluorophenyl)ethyl)-2-(3-cyclopropyl-1H-pyrazol-1-yl)acetamide], for which the CC50 at 4 days in data set [1] is > 1 µM. Besides, the EC50 in data set [2] worked out at 320 nM.

With `Cn1nc(NS(C)(=O)=O)c2c(Cl)ccc(-n3c([C@H](Cc4cc(F)cc(F)c4)NC(=O)Cn4nc(C(F)F)c5c4C(F)(F)[C@@H]4C[C@H]54)nc4cc(F)ccc4c3=O)c21` [Example 18, N—((S)-1-(3-(4-chloro-1-methyl-3-(methylsulfonamido)-1H-indazol-7-yl)-7-fluoro-4-oxo-3,4-dihydroquinazolin-2-yl)-2-(3,5-difluorophenyl)ethyl)-2-((3bS,4aR)-3-(difluoromethyl)-5,5-difluoro-3b,4,4a,5-tetrahydro-1H-cyclopropa[3,4]cyclopenta[1,2-c]pyrazol-1-yl)acetamide], the CC50 at 4 days in data set [1] is > 10 µM. The EC50 in data set [2] came out at 36 nM.
